Assay results from ChEMBL document CHEMBL5241112, “Insights into the recent progress in the medicinal chemistry of pyranopyrimidine analogs” (RSC Med Chem, 2022).
≈ marks a conversion by molar mass, not a printed value.

Key:
Klebsiella pneumoniae [1] = assay: Antimicrobial activity against Klebsiella pneumoniae ATCC 15380 assessed as diameter of inhibition zone at 20 mg/ml incubated for 24 hrs by disk diffusion method; assay type: functional; conditions: read-out: DIZ
Salmonella typhimurium [2] = assay: Antimicrobial activity against Salmonella typhimurium ATCC 19430 assessed as diameter of inhibition zone at 20 mg/ml incubated for 24 hrs by disk diffusion method; assay type: functional, Salmonella enterica subsp. enterica serovar Typhimurium; conditions: Salmonella enterica, read-out: DIZ
Escherichia coli [3] = assay: Antibacterial activity against Escherichia coli MTCC 739 assessed as bacterial growth inhibition; assay type: functional
Raoultella planticola = assay: Antibacterial activity against Raoultella planticola MTCC 530 assessed as bacterial growth inhibition; assay type: functional; conditions: Klebsiella planticola
Micrococcus luteus = assay: Antibacterial activity against Micrococcus luteus MTCC 2470 assessed as bacterial growth inhibition; assay type: functional
Staphylococcus aureus [4] = assay: Antibacterial activity against Staphylococcus aureus MLS-16 MTCC 2940 assessed as bacterial growth inhibition; assay type: functional
Pseudomonas aeruginosa [5] = assay: Antibacterial activity against Pseudomonas aeruginosa MTCC 2453 assessed as bacterial growth inhibition; assay type: functional
Bacillus subtilis [6] = assay: Antibacterial activity against Bacillus subtilis MTCC 121 assessed as bacterial growth inhibition; assay type: functional
Pseudomonas aeruginosa [7] = assay: Antibacterial activity against Pseudomonas aeruginosa MTCC 741 assessed as diameter of inhibition zone at 0.1 mg/ml incubated for 24 hrs by agar well diffusion method; assay type: functional; conditions: read-out: DIZ
Escherichia coli [8] = assay: Antibacterial activity against Escherichia coli MTCC 723 assessed as diameter of inhibition zone at 0.1 mg/ml incubated for 24 hrs by agar well diffusion method; assay type: functional; conditions: read-out: DIZ
Albumin = Albumin (Bos taurus, UniProt P02769); assay: […] bovine serum albumin denaturation incubated for 23 mins by UV-Visible spectrophotometry
Sequence of Albumin (P02769 whole entry): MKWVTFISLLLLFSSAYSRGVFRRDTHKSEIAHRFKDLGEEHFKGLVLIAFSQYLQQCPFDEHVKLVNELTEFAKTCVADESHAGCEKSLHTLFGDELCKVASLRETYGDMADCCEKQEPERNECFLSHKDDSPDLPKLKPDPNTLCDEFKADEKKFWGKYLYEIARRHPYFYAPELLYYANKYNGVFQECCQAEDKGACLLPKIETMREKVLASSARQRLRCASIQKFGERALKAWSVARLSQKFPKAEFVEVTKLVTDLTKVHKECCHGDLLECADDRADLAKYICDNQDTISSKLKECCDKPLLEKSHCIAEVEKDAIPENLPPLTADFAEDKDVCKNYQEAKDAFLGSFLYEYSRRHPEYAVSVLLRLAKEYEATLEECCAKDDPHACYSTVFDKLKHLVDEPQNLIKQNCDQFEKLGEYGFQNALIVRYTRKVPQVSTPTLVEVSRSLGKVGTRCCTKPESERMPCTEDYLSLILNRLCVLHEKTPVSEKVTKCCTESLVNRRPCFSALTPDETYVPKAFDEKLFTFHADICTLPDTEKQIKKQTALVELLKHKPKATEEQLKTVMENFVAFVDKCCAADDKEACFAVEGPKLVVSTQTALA

[9] = Inhibition of porcine pancreatic alpha-amylase preincubated for 10 mins followed by substrate starch addition and measured after 10 mins by colorimetric analysis; parameters: species or system Sus scrofa
Alpha-glucosidase = Alpha-glucosidase (Saccharomyces cerevisiae S288c, UniProt P53341+P38158+P07265); assay: Inhibition of Saccharomyces cerevisiae alpha-glucosidase preincubated for 5 mins followed by PNP-GLUC substrate addition and measured after 20 mins by spectroscopic analysis; assay type: protein assay
Staphylococcus aureus [10] = assay: Antibacterial activity against Staphylococcus aureus ATCC6538-P assessed as diameter of inhibition zone at 50 mg/ml incubated for 24 hrs by paper disk diffusion method; assay type: functional; conditions: read-out: DIZ
Escherichia coli [11] = assay: Antibacterial activity against Escherichia coli ATCC 25922 assessed as diameter of inhibition zone at 50 mg/ml incubated for 24 hrs by paper disk diffusion method; assay type: functional; conditions: read-out: DIZ
Aspergillus fumigatus = assay: microbe, parasite or virus in culture; assay type: functional; conditions: ATCC204305, dose 50 mg/ml, time 24 hrs, read-out: DIZ
[12] = Antioxidant activity assessed as DPPH radical scavenging activity at 12 ug incubated for 30 mins by spectrophotometric analysis; assay type: functional; conditions: dose 12.0 µg
Candida albicans [13] = assay: Antifungal activity against Candida albicans assessed as diameter of inhibition zone incubated for 48 hrs by agar well diffusion method; assay type: functional
Staphylococcus aureus [14] = assay: Antibacterial activity against Staphylococcus aureus NCIM 2654 assessed as diameter of inhibition zone incubated for 24 hrs by agar well diffusion method; assay type: functional
Escherichia coli [15] = assay: Antibacterial activity against Escherichia coli NCIM 2066 assessed as diameter of inhibition zone incubated for 24 hrs by agar well diffusion method; assay type: functional
Candida albicans [16] = assay: Antifungal activity against Candida albicans MTCC 3008 assessed as fungal growth inhibition by broth microdilution method; assay type: functional
Candida albicans [17] = assay: Antifungal activity against Candida albicans assessed as diameter of inhibition zone at 100 ug/ml by agar disc diffusion method; assay type: functional; conditions: read-out: DIZ
Aspergillus flavus [18] = assay: Antifungal activity against Aspergillus flavus assessed as diameter of inhibition zone at 100 ug/ml by agar disc diffusion method; assay type: functional; conditions: read-out: DIZ
[19] = Antioxidant activity assessed as DPPH radical scavenging activity at 75 ug/ml incubated for 30 mins by spectrophotometric analysis; assay type: functional; conditions: dose 75.0 µg/ml
Bacillus subtilis [20] = assay: Antibacterial activity against Bacillus subtilis assessed as diameter of inhibition zone; assay type: functional
Candida albicans [21] = assay: Antifungal activity against Candida albicans assessed as inhibition of fungal growth; assay type: functional
Aspergillus niger = assay: Antifungal activity against Aspergillus niger assessed as inhibition of fungal growth; assay type: functional
Staphylococcus aureus [22] = assay: Antimicrobial activity against Staphylococcus aureus NCTC7447 assessed as diameter of inhibition zone at 20 mg/ml incubated for 24 hrs by disk diffusion method; assay type: functional; conditions: read-out: DIZ
Staphylococcus aureus [23] = assay: Antibacterial activity against Staphylococcus aureus assessed as diameter of inhibition zone; assay type: functional
Salmonella typhimurium [24] = assay: Antibacterial activity against Salmonella typhimurium assessed as diameter of inhibition zone; assay type: functional, Salmonella enterica subsp. enterica serovar Typhimurium
Bacillus cereus = assay: Antimicrobial activity against Bacillus cereus ATCC14579 assessed as diameter of inhibition zone at 20 mg/ml incubated for 24 hrs by disk diffusion method; assay type: functional; conditions: read-out: DIZ
HCT-116 [25] = assay: cells; conditions: Homo sapiens
Pseudomonas aeruginosa [26] = assay: Antimicrobial activity against Pseudomonas aeruginosa ATCC 27853 assessed as diameter of inhibition zone at 20 mg/ml incubated for 24 hrs by disk diffusion method; assay type: functional; conditions: read-out: DIZ
MCF7 = assay: Anticancer activity against human MCF7 cells assessed as reduction in cell viability; assay type: functional, cell-based
Klebsiella pneumoniae [27] = assay: Antimicrobial activity against Klebsiella pneumoniae UC57 assessed as diameter of inhibition zone at 20 mg/ml incubated for 24 hrs by disk diffusion method; assay type: functional; conditions: read-out: DIZ
Aspergillus flavus [28] = assay: Antifungal activity against Aspergillus flavus assessed as inhibition of fungal growth; assay type: functional
Urease = Urease (Canavalia ensiformis, UniProt P07374); assay: Inhibition of jack bean urease by phenol red method
Sequence of Urease (P07374 whole entry): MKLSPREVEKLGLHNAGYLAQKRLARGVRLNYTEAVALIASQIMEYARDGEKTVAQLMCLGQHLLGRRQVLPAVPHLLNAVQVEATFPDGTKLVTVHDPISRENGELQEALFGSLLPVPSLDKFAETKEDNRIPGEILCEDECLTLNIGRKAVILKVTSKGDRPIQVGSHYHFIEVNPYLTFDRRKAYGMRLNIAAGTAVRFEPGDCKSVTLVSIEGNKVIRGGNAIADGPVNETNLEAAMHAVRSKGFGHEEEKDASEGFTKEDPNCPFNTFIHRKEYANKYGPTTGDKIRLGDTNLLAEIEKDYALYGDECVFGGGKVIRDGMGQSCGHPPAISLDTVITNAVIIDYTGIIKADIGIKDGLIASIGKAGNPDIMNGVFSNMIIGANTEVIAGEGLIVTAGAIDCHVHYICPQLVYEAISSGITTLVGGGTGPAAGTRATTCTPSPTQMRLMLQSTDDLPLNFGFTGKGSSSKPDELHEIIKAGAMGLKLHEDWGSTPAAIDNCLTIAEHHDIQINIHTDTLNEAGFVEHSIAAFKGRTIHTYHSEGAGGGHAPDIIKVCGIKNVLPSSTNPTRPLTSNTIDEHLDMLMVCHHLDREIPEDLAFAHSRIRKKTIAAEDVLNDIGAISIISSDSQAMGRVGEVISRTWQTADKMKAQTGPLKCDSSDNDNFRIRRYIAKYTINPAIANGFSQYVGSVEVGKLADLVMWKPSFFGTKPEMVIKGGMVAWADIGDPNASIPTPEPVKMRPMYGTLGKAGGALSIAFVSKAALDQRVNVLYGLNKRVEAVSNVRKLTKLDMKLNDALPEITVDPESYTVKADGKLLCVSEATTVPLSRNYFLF

HepG2 = assay: Anticancer activity against human HepG2 cells assessed as reduction in cell viability; assay type: functional, cell-based
Escherichia coli [29] = assay: Antibacterial activity against Escherichia coli assessed as inhibition of bacterial growth; assay type: functional
Escherichia coli [30] = assay: Antibacterial activity against Escherichia coli assessed as diameter of inhibition zone; assay type: functional
Pseudomonas aeruginosa [31] = assay: Antibacterial activity against Pseudomonas aeruginosa assessed as inhibition of bacterial growth; assay type: functional
Escherichia coli [32] = assay: Antimicrobial activity against Escherichia coli ATCC 14169 assessed as diameter of inhibition zone at 20 mg/ml incubated for 24 hrs by disk diffusion method; assay type: functional; conditions: read-out: DIZ
HCT-116 [33] = assay: Anticancer activity against human HCT-116 cells assessed as reduction in cell viability incubated for 96 hrs by MTT assay; assay type: functional, cell-based; conditions: HCT-116, 96 h
Escherichia coli [34] = assay: Antimicrobial activity against Escherichia coli ATCC 25922 assessed as diameter of inhibition zone at 20 mg/ml incubated for 24 hrs by disk diffusion method; assay type: functional; conditions: read-out: DIZ
Staphylococcus aureus [35] = assay: Antibacterial activity against Staphylococcus aureus assessed as inhibition of bacterial growth; assay type: functional
Klebsiella pneumoniae [36] = assay: Antibacterial activity against Klebsiella pneumoniae MTCC 109 assessed as diameter of inhibition zone at 0.1 mg/ml incubated for 24 hrs by agar well diffusion method; assay type: functional; conditions: read-out: DIZ
Staphylococcus aureus [37] = assay: Antibacterial activity against Staphylococcus aureus MTCC 87 assessed as diameter of inhibition zone at 0.1 mg/ml incubated for 24 hrs by agar well diffusion method; assay type: functional; conditions: read-out: DIZ

## N#CC1=C(N)Oc2[nH]c(=O)[nH]c(=O)c2C1c1ccc[nH]1 (stereo not given)
Klebsiella pneumoniae [1]
  zone of inhibition at 20000 µg/mL: 16 mm
Salmonella typhimurium [2]
  zone of inhibition at 20000 µg/mL: 20 mm

## O=c1oc2ccccc2c2c1C(c1ccccc1)c1c(Nc3ccc([N+](=O)[O-])cc3)ncnc1O2 (stereo not given)
Escherichia coli [3]
  MIC: 31.2 mg/L (≈ 67.2 µM)
Raoultella planticola
  MIC: 31.2 mg/L (≈ 67.2 µM)
Micrococcus luteus
  MIC: 31.2 mg/L (≈ 67.2 µM)
Staphylococcus aureus [4]
  MIC: ≤ 125 mg/L
Pseudomonas aeruginosa [5]
  MIC: ≤ 125 mg/L
Bacillus subtilis [6]
  MIC: ≤ 125 mg/L

## O=C(C1=C(c2ccccc2O)Oc2[nH]c(=S)[nH]c(=O)c2C1c1ccc(Cl)cc1)N1CCCCC1 (stereo not given)
Pseudomonas aeruginosa [7]
  zone of inhibition at 100 µg/mL: 13.1 mm
Escherichia coli [8]
  zone of inhibition at 100 µg/mL: 14.1 mm
Albumin
  IC50: 26.7 µM
[9]
  IC50: 9.9 µM
Alpha-glucosidase
  IC50: 4021 µM

## O=c1[nH]cnc2c1C(c1ccc(Cl)cc1)C=C(c1cc3ccccc3oc1=O)O2 (stereo not given)
Staphylococcus aureus [10]
  zone of inhibition at 50000 µg/mL: 10 mm
Escherichia coli [11]
  zone of inhibition at 50000 µg/mL: 10 mm
Aspergillus fumigatus
  zone of inhibition at 50000 µg/mL: 10 mm

## Cc1n[nH]c2c1C(c1ccccc1)c1c([nH]c(=O)[nH]c1=O)O2 (stereo not given)
[12]
  Activity: 65.8%
Candida albicans [13]
  diameter of the inhibition zone (DIZ): 23 mm
Staphylococcus aureus [14]
  diameter of the inhibition zone (DIZ): 18 mm
Escherichia coli [15]
  diameter of the inhibition zone (DIZ): 14 mm

## COC1=CC(=O)C[C@@H](C)[C@]12Oc1c(Cl)c(OC)cc(OC)c1C2=O [GRISEOFULVIN]
Candida albicans [16]
  MIC: 500 mg/L (≈ 1420 µM)

## CC(=O)N1CCN(c2ccc(OCC3COC(Cn4ccnc4)(c4ccc(Cl)cc4Cl)O3)cc2)CC1 (stereo not given) [KETOCONAZOLE]
Candida albicans [17]
  zone of inhibition at 100 µg/mL: 20.5 mm
Aspergillus flavus [18]
  zone of inhibition at 100 µg/mL: 18.5 mm

## N=c1c2c(ncn1N)Oc1[nH]nc(-c3ccccc3)c1C2c1coc2ccccc2c1=O (stereo not given)
[19]
  Activity: 85.5%

## COc1ccc(C2C(C#N)=C(N)Oc3[nH]c(=O)[nH]c(=O)c32)cc1 (stereo not given)
Bacillus subtilis [20]
  diameter of the inhibition zone (DIZ): 12 mm
Candida albicans [21]
  MIC: 125 mg/L (≈ 400 µM)
Aspergillus niger
  MIC: 162 mg/L (≈ 520 µM)
Staphylococcus aureus [22]
  zone of inhibition at 20000 µg/mL: 14 mm
Staphylococcus aureus [23]
  diameter of the inhibition zone (DIZ): 10 mm
Salmonella typhimurium [24]
  diameter of the inhibition zone (DIZ): 8 mm
Bacillus cereus
  zone of inhibition at 20000 µg/mL: 11 mm
HCT-116 [25]
  IC50: 2.61 µM
Pseudomonas aeruginosa [26]
  zone of inhibition at 20000 µg/mL: 5 mm
MCF7
  IC50: 2.43 µM
Klebsiella pneumoniae [27]
  zone of inhibition at 20000 µg/mL: 14 mm
Aspergillus flavus [28]
  MIC: 150 mg/L (≈ 480 µM)
Urease
  IC50: 62.9 µM
HepG2
  IC50: 2.09 µM
Escherichia coli [29]
  MIC: 25 mg/L (≈ 80.1 µM)
Escherichia coli [30]
  diameter of the inhibition zone (DIZ): 10 mm
Pseudomonas aeruginosa [31]
  MIC: 25 mg/L (≈ 80.1 µM)
Escherichia coli [32]
  zone of inhibition at 20000 µg/mL: 8 mm

## N#CC1=C(N)Oc2[nH]c(=O)[nH]c(=O)c2C1c1cccs1 (stereo not given)
Candida albicans [21]
  MIC: 125 mg/L (≈ 434 µM)
Aspergillus niger
  MIC: 162 mg/L (≈ 564 µM)
Klebsiella pneumoniae [1]
  zone of inhibition at 20000 µg/mL: 16 mm
HCT-116 [33]
  IC50: 2.76 µM
Aspergillus flavus [28]
  MIC: 150 mg/L (≈ 520 µM)
Salmonella typhimurium [2]
  zone of inhibition at 20000 µg/mL: 20 mm
Escherichia coli [34]
  zone of inhibition at 20000 µg/mL: 14 mm

## N#CC1=C(N)Oc2[nH]c(=O)[nH]c(=O)c2C1c1ccccc1O (stereo not given)
Candida albicans [21]
  MIC: 125 mg/L (≈ 419 µM)
Aspergillus niger
  MIC: 162 mg/L (≈ 545 µM)
Aspergillus flavus [28]
  MIC: 150 mg/L (≈ 503 µM)
Escherichia coli [29]
  MIC: 75 mg/L (≈ 251 µM)
Pseudomonas aeruginosa [31]
  MIC: 25 mg/L (≈ 83.8 µM)
Staphylococcus aureus [35]
  MIC: 25 mg/L (≈ 83.8 µM)

## O=C(C1=C(c2ccccc2O)Oc2[nH]c(=S)[nH]c(=O)c2C1c1ccc(F)cc1)N1CCCCC1 (stereo not given)
Klebsiella pneumoniae [36]
  zone of inhibition at 100 µg/mL: 9.2 mm
Albumin
  IC50: 12.3 µM
Staphylococcus aureus [37]
  zone of inhibition at 100 µg/mL: 10.5 mm
[9]
  IC50: 42.8 µM
Alpha-glucosidase
  IC50: 4101 µM
